# Measured values reported in patent publication US20240216549A1, “ENHANCEMENT OF TREATMENT WITH IMMUNOTHERAPEUTIC AGENTS” (ACT THERAPEUTICS LTD, priority 2021, published 2024).
# System: subcutaneous prostate cancer model (PC3)
# Assay: Tumour specific uptake of Evans Blue vs. Enhancement MI
# Type: in vivo, mice
# Settings: ACT, Enhancement 0.5 MHz MI 0.2, compared to MI=0 (no ultrasound); 30 min after treatment
# Procedure: To investigate the effect of MI variance of the US Enhancement field, tumour specific uptake of Evans Blue (EB, fluorescent dye) has been investigated in a subcutaneous prostate cancer model (PC3) in mice. Five groups with Enhancement insonation MIs of 0, 0.1, 0.2, 0.3 and 0.4 were investigated (N=3 animals per group). […] 30 min after treatment, the tumours were excised and the amount of EB was measured by spectrophotometry at 620 nm.
smiles,measurement,value
Cc1cc(-c2ccc(/N=N/c3ccc4c(S(=O)(=O)O)cc(S(=O)(=O)O)c(N)c4c3O)c(C)c2)ccc1/N=N/c1ccc2c(S(=O)(=O)O)cc(S(=O)(=O)O)c(N)c2c1O [Evans Blue],increase in tumour specific uptake,~60%
